In data set [1] the test system is SKOV-3 cancer cell lines. Kind of data set: SKOV-3 cell viability after treatment with 10 μM test compound. It counts as cell-based. As to conditions: for viability at 10 µM: Homo sapiens, SK-OV-3, 10 micromolar test compound, SKOV-3 cells; for % viability after treatment with 10 micromolar of test compound (SKOV-3 cells): 10 micromolar test compound, hydrochloride. On the procedure: SKOV-3 cancer cell lines were treated with a test compound, either as a pure enantiomer or a mixture of stereoisomers, at a concentration of 10 μM. Cell viability was evaluated following treatment with a compound as disclosed in Table B. Viability of cancer cells following treatment is indicated according to the following legend:
A=0-25% viability B=26-50% viability C=>50% viability

For data set [2], the system named is OVCAR-4. Kind of data set: Cell viability (CellTiterGlo), OVCAR-4. It counts as cell-based. The following applies: Homo sapiens. On the procedure:
(§1) Candidate compounds are tested in 384-well plates for effects on cell viability in the presence or absence of an appropriate conventional anticancer drug. Cell viability is indirectly monitored in the first instance using CellTiterGlo (Promega Corp., Madison, WI) (Table D). To determine if cell death is apoptotic, the induction of caspase activity is assessed utilizing the CaspaseGlo Assay system (Promega Corp., Madison, WI) (Table E). Cell viability is monitored 1 to 3 days after addition of compounds and conventional drugs. […] A compound of any of the formulae as disclosed herein is evaluated in combination with said anticancer drug to determine which ML-IAP antagonist can sensitize most efficaciously. Select candidate compounds are tested in 14 point drug dose response (DDR) curves in a 384-well format in order to establish potency in combination with decreasing concentrations of lung cancer relevant drug regimens. Furthermore, checker-board titrations of a conventional drug and the candidate molecules are performed to search for synergy (using ISOBOLOGRAM analysis). Compounds and combinations as described herein are also tested for cytotoxicity against normal human cells (e.g. primary fibroblasts, lymphocytes, hepatocytes, epithelial and endothelial cells) using known methods.
(§2) Cell viability was evaluated following treatment with a compound as disclosed in Table D. Viability of cancer cells following treatment is indicated according to the following legend: […]
In general terms: ATP-based viability assays read luminescence as a measure of living cells.

Data set [3] has as its system SKOV-3. Kind of data set: Cell viability (CellTiterGlo), SKOV-3. It counts as cell-based. The following applies: Homo sapiens, SK-OV-3. Here is the method: as §1, §2
The nature of data set [4]: In vivo PK plasma exposure in mice. Here is the method:
Pharmacokinetic (PK) studies are performed in vivo in mice for compounds as described herein. Standard formulations are evaluated, including hydroxypropyl methylcellulose, carboxymethylcellulose, and polyethylene glycol. For intravenous studies, compounds are administered via indwelling catheters in jugular vein and samples collected from the carotid artery. These experiments provide basic pharmacokinetic parameters including peak plasma concentration (Cmax), bioavailability (% F), exposure (AUC), half-life (t½), clearance (CL), volume of distribution (Vd), and brain levels. To measure bioavailability, a compound as described herein is administered to three animals/group, both orally (10 mg/kg) and intravenously (1 mg/kg). Intraperitoneally administration is also assessed in order to determine both brain and plasma levels of compounds.
The compounds described herein were tested in vivo in mice to measure PK plasma exposure as shown in Table F. The PK plasma values are indicated according to the following legend: […]

The subject of data set [5] is Caspase 3/7 (SKOV-3). Put plainly: Induction of caspase 3/7 activity (CaspaseGlo), SKOV-3. It counts as cell-based. The following applies: Homo sapiens, SK-OV-3. On the procedure: as §1
(§3) The induction of caspase activities was tested with a compound as disclosed in Table E. The activities are indicated according to the following legend: […]

The test system of data set [6] is Caspase 9 (SKOV-3). Kind of data set: Induction of caspase 9 activity (CaspaseGlo), SKOV-3. It counts as cell-based. The following applies: Homo sapiens, SK-OV-3. Here is the method:
as §1, §3

The subject of data set [7] is Caspase 3/7 (OVCAR-4). Kind of data set: Induction of caspase 3/7 activity (CaspaseGlo), OVCAR-4. It counts as cell-based. As to conditions: Homo sapiens. On the procedure:
as §1, §3

Where a name gives a salt, the structure may show the parent alone.

As to `CCC1C[C@@H]2SCC[C@H](NC(=O)[C@H](C)NC)C(=O)N2[C@@H]1C(=O)N[C@@H]1CCCc2ccccc21` (stereo partly shown) [Compound 36, hydrochloride], the viability (in general, a per cent measure of how many cells are alive, often set against a control) at 10 µM in data set [1] lay in the range of 26 to 50%. Also, the IC50 (as a rule, the concentration that gives 50% inhibition) in data set [2] was 100 to 1000 nM; in data set [3], 10 to 100 nM.

As to `CN[C@@H](C)C(=O)N[C@H]1CCO[C@H]2CC(C)(C)[C@@H](C(=O)N[C@@H]3CCOc4ccccc43)N2C1=O` [Compound 74, (4S,7S,9aS)—N—((R)-chroman-4-yl)-8,8-dimethyl-4-((S)-2-(methylamino)propanamido)-5-oxooctahydropyrrolo[2,1-b][1,3]oxazepine-7-carboxamide hydrochloride], the viability at 10 µM in data set [1] was 0 to 25%. The figures for the IC50 in data set [2] and in data set [3] were 100 to 1000 nM and 10 to 100 nM, respectively.

Turning to `CC[C@H](NC)C(=O)N[C@H]1CCS[C@H]2CC(C)(C)[C@@H](C(=O)N[C@@H]3CCCc4ccccc43)N2C1=O.Cl` [Compound 79, (4S,7S,9aS)-8,8-dimethyl-4-((S)-2-(methylamino)butanamido)-5-oxo-N—((R)-1,2,3,4-tetrahydronaphthalen-1-yl)octahydropyrrolo[2,1-b][1,3]thiazepine-7-carboxamide hydrochloride], the “PK plasma exposure at 1 h (IP, 10 mg/kg)” value in data set [4] is recorded as “iii (iii=500-1000 nM)”. Also, the half-maximal effective concentration (EC50) in data set [5], in data set [6] and in data set [7] was 1 to 10 nM in each case. The viability at 10 µM in data set [1] fell in the range of 0 to 25%. The IC50 in data set [2] fell in the range of 10 to 100 nM; in data set [3] it was 1 to 10 nM.

Consider `CN[C@@H](C)C(=O)N[C@H]1CCS(=O)(=O)[C@H]2CC(C)(C)[C@@H](C(=O)N[C@@H]3CCCc4ccccc43)N2C1=O` [Compound 1, (4S,7S,9aS)-8,8-dimethyl-4-((S)-2-(methylamino)propanamido)-5-oxo-N—((R)-1,2,3,4-tetrahydronaphthalen-1-yl)octahydropyrrolo[2,1-b][1,3]thiazepine-7-carboxamide 1,1-dioxide hydrochloride], for which the viability at 10 µM in data set [1] was greater than 50%. Further, the 50% inhibitory concentration (IC50) in data set [2] and in data set [3] was greater than 1000 nM in each case.

In the case of `CN[C@@H](C)C(=O)N[C@H]1Cc2cc(OC)ccc2[C@H]2CC(C)(C)[C@@H](C(=O)N[C@@H]3CCCc4ccccc43)N2C1=O` [Compound 9, (6S,11bR)-9-methoxy-2,2-dimethyl-6-((S)-2-(methylamino)propanamido)-5-oxo-N—((R)-1,2,3,4-tetrahydronaphthalen-1-yl)-2,3,5,6,7,11b-hexahydro-1H-benzo[c]pyrrolo[1,2-a]azepine-3-carboxamide hydrochloride], in data set [1], the viability at 10 µM lay within 0 to 25%. Also, the IC50 in data set [2] and in data set [3] was 100 to 1000 nM each time.

`C=CCC1(CC=C)C[C@@H]2OCC[C@H](NC(=O)[C@H](C)NC)C(=O)N2[C@@H]1C(=O)N[C@@H]1CCCc2ccccc21` [Compound 14, (4S,9aS)-8,8-diallyl-4-((S)-2-(methylamino)propanamido)-5-oxo-N—((R)-1,2,3,4-tetrahydronaphthalen-1-yl)octahydropyrrolo[2,1-b][1,3]oxazepine-7-carboxamide hydrochloride]: in data set [1], the viability at 10 µM was in the range of 0 to 25%. For the same molecule, the IC50 in data set [2] and in data set [3] was 100 to 1000 nM each time.

Regarding `C=CCC1(CC=C)C[C@@H]2SCC[C@H](NC(=O)[C@H](C)NC)C(=O)N2[C@@H]1C(=O)N[C@@H]1CCCc2ccccc21` [Compound 29, (4S,9aS)-8,8-diallyl-4-((S)-2-(methylamino)propanamido)-5-oxo-N—((R)-1,2,3,4-tetrahydronaphthalen-1-yl)octahydropyrrolo[2,1-b][1,3]thiazepine-7-carboxamide hydrochloride], the “% viability after treatment with 10 micromolar of test compound (SKOV-3 cells)” value in data set [1] was “A (A=0-25% viability)”. Moreover, the IC50 in data set [2] and in data set [3] was greater than 1000 nM in each case.

Molecule `CN[C@@H](C)C(=O)N[C@H]1CCS[C@H]2CC(CCc3ccccc3)(CCc3ccccc3)[C@@H](C(=O)N[C@@H]3CCCc4ccccc43)N2C1=O` [Compound 45, (4S,9aS)-4-((S)-2-(methylamino)propanamido)-5-oxo-8,8-diphenethyl-N—((R)-1,2,3,4-tetrahydronaphthalen-1-yl)octahydropyrrolo[2,1-b][1,3]thiazepine-7-carboxamide hydrochloride] returned a viability at 10 µM in data set [1] of 0 to 25%. The values for the IC50 in data set [2] and in data set [3] were greater than 1000 nM and 100 to 1000 nM, respectively.

`CCC1(CC)C[C@@H]2OCC[C@H](NC(=O)[C@H](C)NC)C(=O)N2[C@@H]1C(=O)N[C@@H]1CCCc2ccccc21` [Compound 21, (4S)-8,8-diethyl-4-((S)-2-(methylamino)propanamido)-5-oxo-N—((R)-1,2,3,4-tetrahydronaphthalen-1-yl)octahydropyrrolo[2,1-b][1,3]oxazepine-7-carboxamide hydrochloride] came in with a viability at 10 µM in data set [1] of 0 to 25%. The figures for the IC50 in data set [2] and in data set [3] were 100 to 1000 nM and 10 to 100 nM, respectively.

With `CN[C@@H](C)C(=O)N[C@H]1CCS[C@H]2CC(CCc3ccccc3)[C@@H](C(=O)N[C@@H]3CCCc4ccccc43)N2C1=O` (stereo partly drawn) [Compound 44, (4S,9aS)-4-((S)-2-(methylamino)propanamido)-5-oxo-8,8-phenethyl-N—((R)-1,2,3,4-tetrahydronaphthalen-1-yl)octahydropyrrolo[2,1-b][1,3]thiazepine-7-carboxamide hydrochloride], the “% viability after treatment with 10 micromolar of test compound (SKOV-3 cells)” value in data set [1] is “A (A=0-25% viability)”. The 50% inhibitory concentration (IC50) in data set [2] and in data set [3] was greater than 1000 nM in each case.

`CN[C@@H](C)C(=O)N[C@H]1CCO[C@H]2CC(C)(C)[C@@H](C(=O)NCCC(C)C)N2C1=O` [Compound 70, (4S,7S,9aS)—N-isopentyl-8,8-dimethyl-4-((S)-2-(methylamino)propanamido)-5-oxooctahydropyrrolo[2,1-b][1,3]oxazepine-7-carboxamide hydrochloride] came in with a viability at 10 µM in data set [1] greater than 50%. Besides, the IC50 in data set [2] and in data set [3] was greater than 1000 nM each time.

Consider `CN[C@@H](C)C(=O)N[C@H]1CCO[C@H]2CC(C)(C)[C@@H](CN[C@@H]3CCCc4ccccc43)N2C1=O` [Compound 56, (S)—N-((4S,7S,9aS)-8,8-dimethyl-5-oxo-7-((((R)-1,2,3,4-tetrahydronaphthalen-1-yl)amino)methyl)octahydropyrrolo[2,1-b][1,3]oxazepin-4-yl)-2-(methylamino)propanamide dihydrochloride], for which the viability at 10 µM in data set [1] was greater than 50%. In addition, the IC50 in data set [2] and in data set [3] was greater than 1000 nM each time.

The values are drawn from patent US20230295181A1, “INHIBITOR OF APOPTOSIS (IAP) PROTEIN ANTAGONISTS” (Sanford Burnham Prebys Medical Discovery Institute, priority 2020, published 2023).
